Results published in patent US20140234364A1, “TOTAL SYNTHESIS AND IMM[…] […] OF THE LIPOPOLY[…] NEISSERIA MENINGITIDIS” (MAX-PLANCK-GESELLSCHAFT ZUR FÖRDERUNG DER WISSENSCHAFTEN …, priority 2011, published 2014).

System: female BALB/c mice
Experiment: Immunization of mice in presence of Freund's adjuvant, antibody responses in sera analyzed by glycan microarray
Type: in vivo
Description: To evaluate the immunogenicity of the meningococcal tetrasaccharide 1, two groups of six female BALB/c mice, six to eight weeks old, were immunized subcutaneously (s.c.) in presence of Freund's adjuvant (FA). Each mouse of the first group was immunized s.c. with 0.4 μg unconjugated tetrasaccharide 1 antigen in presence of Freund's adjuvant (priming with Freund's Complete Adjuvant, boosting with Freund's Incomplete Adjuvant, both Sigma). Each mouse of the second group received tetrasaccharide 1-CRM197 conjugate, whereby the amount of conjugate corresponded to 0.4 μg tetrasaccharide 1 antigen. Two weeks after initial immunizations, first boosting injection was performed with 4 μg tetrasaccharide 1 or the corresponding tetrasaccharide 1-CRM197 conjugate.
For all immunizations, antigen was diluted in sterile PBS to a total injection volume of 100 μL per mouse. Blood was collected at the tail vein and erythrocytes were separated from serum by centrifugation. All blood samples from the initial immunization study with FA were diluted with 10 μl sterile PBS before sera separation. Sera were collected in definited time intervals and IgG antibody responses were analyzed by microarray.
Tetrasaccharide 1 in three different concentrations (1, 0.5 and 0.1 mM), CRM197 (1, 0.5 and 0.1 μM) and bovine serum albumin (BSA)-spacer-GlcNAc conjugate (1, 0.5 and 0.1 μM) were dissolved in sodium phosphate buffer (50 mM, pH 8.5) and printed in triplicate robotically using a piezoelectric spotting device (S11, Scienion, Berlin, Germany) onto the surface of the microarray slides (NHS-activated glass slides; CodeLink). BSA-spacer-GlcNAc was used to assess immunogenicity against the spacer moiety of the conjugate. […]
The quenched array slides were blocked for 1 hour with 1% (w/v) BSA in PBS, then washed three times with PBS and dried by centrifugation. […] Then, slides were incubated with fluorescence-labeled detection antibody diluted in 1% BSA-PBS (w/v) for 1 hour at room temperature in a humid chamber. […]

For `CC(=O)NC1C(O)[C@H](O)C(CO)O[C@@H]1OC1C(O)[C@H](O)C([C@@H](O)CO)O[C@@H]1OC1C(O)[C@@H](O[C@@H]2C(O)C[C@](OCCCCCN)(C(=O)O)OC2[C@H](O)CO)OC([C@@H](O)CO)[C@H]1O` (stereo partly drawn) [tetrasaccharide 1, 2-N-acetyl-2-deoxy-α-D-glucopyranosyl-(1→2)-L-glycero-α-D-manno-heptopyranosyl-(1→3)-L-glycero-α-D-manno-heptopyranosyl-(1→5)-2-(5-amino)pentyl-3-deoxy-α-D-manno-oct-2-ulopyranosidonic acid], the “IgG antibody response, anti-tetrasaccharide 1 titers (fluorescence intensity)” value (1:80 sera dilution, after first boosting, Freund's adjuvant) was “relatively weak”, the “Tetrasaccharide 1-specific IgG and IgM antibody responses in pooled sera” value (after first boosting with 4 μg (4. week), Freund's adjuvant) was “identified” and the “IgG response one week after second boosting” value (second boost 4 μg antigen in week 8, read in week 9) was “marginal increase”.
